Series [1] deals with Nippostrongylus brasiliensis. The experiment in a line: In vitro assay 2: Nippostrongylus brasiliensis (NIPOBR), acetylcholine esterase readout. Conditions: read-out: activity (reduction of AChE compared to negative control); for inhibition at 1 µg/mL: 1 μg/ml; for inhibition at 10 µg/mL: 10 μg/ml. The procedure, abridged: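 Adult worms, washed in saline with antibiotics/antimycotic, were incubated in medium with compound (DMSO stock) at 10 μg/ml (10 ppm) or 1 μg/ml (1 ppm). Acetylcholine esterase activity in a medium aliquot was measured against a negative control as the anthelmintic readout.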

Series [2] has as its system Dirofilaria immitis third-stage larvae. Description: In vitro assay 4: Dirofilaria immitis (DIROIM L4), motility. The conditions noted are these: 72 h, read-out: EC50 (reduction of motility).
The next series concerns the target C. elegans Slo-1a (Caenorhabditis elegans, UniProt Q95V25). The conditions noted are these: pE50 (negative decadic logarithm of EC50), CHO cells expressing C. elegans Slo-1a, voltage sensitive dye.
The test system of series [3] is Dirofilaria immitis microfilariae. The experiment in a line: In vitro assay 3: Dirofilaria immitis microfilariae (DIROIM L1), motility. The conditions noted are these: 72 h, read-out: EC50 (reduction of motility), 72 h incubation.
In a further series the test system is Haemonchus contortus. Conditions: 120 h, read-out: activity (larval mortality).
Series [4] has as its system Litomosoides sigmodontis third-stage larvae. Conditions: 72 h, read-out: EC50 (reduction of motility).
Description: In Vitro Assay 5: Litomosoides sigmodontis (LTMOSI L3)
10 Litomosoides sigmodontis third-stage larvae, which were freshly isolated from the pleural cavity of an infected rodent, were added to wells of a microtitre plate containing a nutrient medium and the test compound in DMSO. Compounds were tested in concentration-response assay in duplicate. Larvae exposed to DMSO and no test compounds were used as negative controls. Larvae were evaluated after 72 h of incubation with the compound. Efficacy was determined as the reduction of motility in comparison to the negative control. Based on the evaluation of a wide concentration range, concentration-response curves as well as EC50-values were calculated.
In the next series the test system is Cooperia curticei. The conditions noted are these: Cooperia curticei, 120 h, read-out: activity (larval mortality).
A short description of series [5]: log P by HPLC on reversed phase columns (Method L0).
Description: Measurement of log P values was performed according to EEC directive 79/831 Annex V.A8 by HPLC (High Performance Liquid Chromatography) on reversed phase columns with the following methods: • ^[a] log P value is determined by measurement of LC-UV, in an acidic range, with 0.1% formic acid in water and acetonitrile as eluent (linear gradient from 10% acetonitrile to 95% acetonitrile). • ^[b] log P value is determined by measurement of LC-UV, in a neutral range, with 0.001 molar ammonium acetate solution in water and acetonitrile as eluent (linear gradient from 10% acetonitrile to 95% acetonitrile).
Calibration was done with straight-chain alkan-2-ones (with 3 to 16 carbon atoms) with known log P values (measurement of log P values using retention times with linear interpolation between successive alkanones).

Chain of C. elegans Slo-1a (Q95V25 whole entry): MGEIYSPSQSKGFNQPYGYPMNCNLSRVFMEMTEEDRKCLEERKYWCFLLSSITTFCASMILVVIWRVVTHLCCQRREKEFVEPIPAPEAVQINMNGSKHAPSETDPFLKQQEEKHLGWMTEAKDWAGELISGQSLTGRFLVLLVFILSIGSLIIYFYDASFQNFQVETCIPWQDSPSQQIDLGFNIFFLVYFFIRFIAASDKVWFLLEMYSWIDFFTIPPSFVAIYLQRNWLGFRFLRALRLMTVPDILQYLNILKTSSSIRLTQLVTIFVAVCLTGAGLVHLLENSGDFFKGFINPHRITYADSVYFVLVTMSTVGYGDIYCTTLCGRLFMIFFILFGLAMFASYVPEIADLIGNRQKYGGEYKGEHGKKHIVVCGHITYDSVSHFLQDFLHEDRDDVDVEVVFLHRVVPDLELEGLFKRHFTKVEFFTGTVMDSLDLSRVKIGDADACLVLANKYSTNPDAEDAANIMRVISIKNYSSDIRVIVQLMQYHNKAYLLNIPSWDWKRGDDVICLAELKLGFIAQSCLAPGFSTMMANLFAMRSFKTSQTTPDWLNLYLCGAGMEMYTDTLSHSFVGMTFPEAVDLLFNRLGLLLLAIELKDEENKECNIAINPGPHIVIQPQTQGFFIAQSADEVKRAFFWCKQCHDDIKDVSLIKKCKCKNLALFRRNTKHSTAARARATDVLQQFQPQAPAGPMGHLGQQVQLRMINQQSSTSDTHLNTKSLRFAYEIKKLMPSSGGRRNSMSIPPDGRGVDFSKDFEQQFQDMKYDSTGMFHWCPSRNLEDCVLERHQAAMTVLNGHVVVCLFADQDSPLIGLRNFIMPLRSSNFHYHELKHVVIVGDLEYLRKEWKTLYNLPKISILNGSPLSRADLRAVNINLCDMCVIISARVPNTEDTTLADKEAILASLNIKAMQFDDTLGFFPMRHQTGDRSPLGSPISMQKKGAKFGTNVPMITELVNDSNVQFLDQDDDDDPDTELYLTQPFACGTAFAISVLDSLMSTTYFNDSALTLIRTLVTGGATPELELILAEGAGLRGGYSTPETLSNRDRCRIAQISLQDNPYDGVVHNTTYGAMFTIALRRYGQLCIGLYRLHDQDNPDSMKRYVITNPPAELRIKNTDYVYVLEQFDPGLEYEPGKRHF
Description for C. elegans Slo-1a: In Vitro Assay 1: C. elegans Slo-1a—Action at a Recombinant C. elegans Cell Line
Cells were cultured at 37° C. and 5% CO2 in MEMalpha with Gutamax I (Invitrogen, Nr.: 32571), supplemented with 10% (v/v) heat inactivated fetal bovine serum (Invitrogen, Nr.: 10500), G418 (1 mg/ml, Invitrogen, Nr.: 10131). Cells were detached using Accutase (Sigma, Nr.: A6964).
Membrane Potential Measurements
Laboratory compound testing was performed on 384-well microtiter plates (MTPs, Greiner, Nr.: 781092). 8000 cells/well were plated onto 384-well MTPs and cultured for 20 to 24 hours at 37° C. and 5% CO2. After removal of the cell culture medium, the cells were washed once with tyrode (150 mM NaCl, 0.3 mM KCl, 2 mM CaCl2, 1 mM MgCl2, 0.8 mM NaH2PO4, 5 mM Glucose, 28 mM Hepes, pH 7.4) and then loaded with the voltage sensitive dye of the Membrane Potential Assay Kit diluted in tyrode for 1 h at room temperature.
After starting the measurement of fluorescence using a FLIPR Tetra (Molecular Devices, Exc. 510-545 nm, Emm. 565-625 nm), test compounds were added followed by the addition of KCl tyrode (final assay concentration: 70 mM KCl, 2 mM CaCl2, 1 mM MgCl2, 0.8 mM NaH2PO4, 5 mM Glucose, 28 mM Hepes, pH 7.4, including the voltage sensitive dye). The measurement was completed after 7 minutes.
The data were evaluated by using the ActivityBase XLfit software (IDBS) for curve fitting and calculation of the half-maximal effective concentration (EC50) and are reported as negative decadic logarithm (pE50).
Description for Cooperia curticei: In Vitro Assay 6: Cooperia curticei (COOPCU L3)
Solvent: dimethyl sulfoxide
Approximately 40 nematode larvae (Cooperia curticei) are transferred into a test tube containing the compound solution.
After 5 days percentage of larval mortality is recorded. 100% efficacy means all larvae are killed; 0% efficacy means no larvae are killed.
Description for Haemonchus contortus: In Vitro Assay 7: Haemonchus contortus (HAEMCO L3)
Solvent: dimethyl sulfoxide
Approximately 40 larvae of the red stomach worm (Haemonchus contortus) are transferred into a test tube containing compound solution.
After 5 days the percentage of larval mortality is recorded. 100% efficacy means all larvae are killed, 0% efficacy means no larvae are killed.

As for `Cc1cc(-c2cc(Cl)cc(Cl)c2)c2ncc(C(=O)N[C@H]3CCOc4ccccc43)c(N(C)C)c2c1` [Example 12], the inhibition at 1 µg/mL in series [1] was > 80%. Also, the inhibition at 10 µg/mL in series [1] was > 80%. In addition, the EC50 – broadly, the midpoint of the concentration-response curve – in series [2] is < 0.1 µg/mL; at C. elegans Slo-1a, < 3.16 nM; in series [3], < 0.1 µg/mL; in series [4] it was < 0.1 µg/mL. In addition, in the series with Haemonchus contortus, the mortality (in general, the percentage killed) at 20 ppm turned out to be 80%.
For the compound `O=C(N[C@H]1CCOc2ccccc21)c1cnc2c(-c3cc(Cl)cc(Cl)c3)cccc2c1N1CCOCC1` [Example 17], in series [1], the inhibition at 1 µg/mL is > 80%. Also, the inhibition at 10 µg/mL in series [1] is > 80%. Besides, the mortality at 4 ppm in the series with Cooperia curticei and in the series with Haemonchus contortus was 100% each time. The mortality at 20 ppm in the series with Cooperia curticei and in the series on Haemonchus contortus was 100% throughout. The EC50 was < 0.1 µg/mL in series [2], < 3.16 nM on C. elegans Slo-1a, < 0.1 µg/mL in series [3] and < 0.1 µg/mL in series [4].
Turning to `CNc1c(C(=O)N[C@H]2CCOc3ccccc32)cnc2c(-c3cc(Cl)cc(Cl)c3)cccc12` [Example 24], the inhibition at 1 µg/mL in series [1] is > 80%. Also, the inhibition at 10 µg/mL in series [1] is > 80%. The mortality at 4 ppm with Cooperia curticei and in the series on Haemonchus contortus was 100% in each case. The mortality at 20 ppm with Cooperia curticei and with Haemonchus contortus was 100% in each case. In addition, the EC50 in series [2] is < 0.1 µg/mL; at C. elegans Slo-1a, < 3.16 nM; in series [3], < 0.1 µg/mL; in series [4], < 0.1 µg/mL.
As to `CN(C)c1c(C(=O)N[C@H]2CCOc3ccccc32)cnc2c(-c3cc(Cl)ccc3F)cccc12` [Example 37], the inhibition at 1 µg/mL in series [1] was > 80%. In addition, the inhibition at 10 µg/mL in series [1] was > 80%. The mortality at 4 ppm in the series on Cooperia curticei and with Haemonchus contortus was 100% each time. The mortality at 20 ppm in the series with Cooperia curticei and in the series on Haemonchus contortus was 100% each time. Moreover, the EC50 in series [2] was < 0.1 µg/mL; at C. elegans Slo-1a, < 3.16 nM; in series [3] it was < 0.1 µg/mL; in series [4], < 0.1 µg/mL.
For `O=C(N[C@H]1CCOc2ccccc21)c1cnc2c(-c3cccc(Cl)c3Cl)cccc2c1N1CCOCC1` [Example 52, 8-(2,3-dichlorophenyl)-N-[(4S)-3,4-dihydro-2H-chromen-4-yl]-4-(morpholin-4-yl)quinoline-3-carboxamide], the inhibition at 1 µg/mL in series [1] was > 80%. Further, the inhibition at 10 µg/mL in series [1] was > 80%. Also, the mortality at 4 ppm in the series with Cooperia curticei and with Haemonchus contortus was 100% in each case. For the same compound, the mortality at 20 ppm with Cooperia curticei and in the series with Haemonchus contortus was 100% each time. Also, the EC50 is < 0.1 µg/mL in series [2], < 3.16 nM on C. elegans Slo-1a, < 0.1 µg/mL in series [3] and < 0.1 µg/mL in series [4].
For `COc1c(F)ccc(-c2cccc3c(N4CCOCC4)c(C(=O)N[C@H]4CCOc5ccccc54)cnc23)c1F` [Example 53], in series [1], the inhibition at 1 µg/mL was > 80%. The inhibition at 10 µg/mL in series [1] was > 80%. The mortality at 4 ppm was determined as 100% in the series on Cooperia curticei and 80% in the series on Haemonchus contortus. The mortality at 20 ppm with Cooperia curticei and in the series on Haemonchus contortus was 100% throughout. For the same compound, the EC50 in series [2] is < 0.1 µg/mL; at C. elegans Slo-1a, < 3.16 nM; in series [3], < 0.1 µg/mL; in series [4], < 0.1 µg/mL.
Turning to `CCOc1c(C(=O)N[C@H]2CCc3ccccc32)cnc2c(-c3cc(Cl)cc(Cl)c3)cccc12` [Example 134, 8-(3,5-dichlorophenyl)-N-[(1S)-2,3-dihydro-1H-inden-1-yl]-4-ethoxyquinoline-3-carboxamide], the inhibition at 1 µg/mL in series [1] is > 80%. In addition, in series [1], the inhibition at 10 µg/mL was > 80%. The mortality at 4 ppm in the series on Cooperia curticei and with Haemonchus contortus was 100% in each case. Moreover, the mortality at 20 ppm with Cooperia curticei and in the series on Haemonchus contortus was 100% in each case. Further, the EC50 in series [2], in series [3] and in series [4] was < 0.1 µg/mL each time.
As to `O=C(N[C@H]1CCOc2ccccc21)c1cnc2c(-c3cc(F)cc(Cl)c3)c(F)ccc2c1N1CCOCC1` [Example 143], the inhibition at 1 µg/mL in series [1] is > 80%. In addition, in series [1], the inhibition at 10 µg/mL is > 80%. Further, the mortality at 4 ppm in the series with Cooperia curticei and with Haemonchus contortus was 100% in each case. The mortality at 20 ppm in the series on Cooperia curticei and in the series on Haemonchus contortus was 100% in each case. Also, the EC50 in series [2] is < 0.1 µg/mL; at C. elegans Slo-1a, < 3.16 nM; in series [3], < 0.1 µg/mL; in series [4], < 0.1 µg/mL.
Regarding `CCOc1c(C(=O)N[C@H]2CCOc3ccccc32)cnc2c(-c3cc(Cl)cc(Cl)c3)cccc12` [Example 341], the inhibition at 1 µg/mL in series [1] is > 80%. The inhibition at 10 µg/mL in series [1] was > 80%. For the same compound, the mortality at 4 ppm with Cooperia curticei was 90%; in the series with Haemonchus contortus, 80%. In addition, the mortality at 20 ppm in the series with Cooperia curticei worked out at 100%; in the series with Haemonchus contortus it was 80%. Moreover, the EC50 was < 0.1 µg/mL in series [2], < 3.16 nM on C. elegans Slo-1a, < 0.1 µg/mL in series [3] and < 0.1 µg/mL in series [4].
`CCc1c(C(=O)N[C@H]2CCOc3ccccc32)cnc2c(-c3cc(Cl)cc(Cl)c3)cccc12` [Example 350, 8-(3,5-dichlorophenyl)-N-[(4S)-3,4-dihydro-2H-chromen-4-yl]-4-ethyl quino-line-3-carboxamide]: the inhibition at 1 µg/mL in series [1] is > 80%. Further, the mortality at 4 ppm in the series on Cooperia curticei and in the series on Haemonchus contortus was 100% throughout. Also, the mortality at 20 ppm with Cooperia curticei and in the series on Haemonchus contortus was 100% each time. In addition, the chromatographic logP (commonly lipophilicity estimated from chromatographic retention) in series [5] came out at 5.06. Also, the EC50 in series [2] is < 0.1 µg/mL; on C. elegans Slo-1a, < 3.16 nM; in series [3], < 0.1 µg/mL; in series [4], < 0.1 µg/mL.
With `COc1c(C(=O)N[C@H]2CCOc3ccccc32)cnc2c(-c3cc(Cl)cc(Cl)c3)cccc12` [Example 373, 8-(3,5-dichlorophenyl)-N-[(4S)-3,4-dihydro-2H-chromen-4-yl]-4-methoxyquinoline-3-carboxamide], the inhibition at 1 µg/mL in series [1] is > 80%. Besides, the inhibition at 10 µg/mL in series [1] is > 80%. Besides, the mortality at 4 ppm in the series with Cooperia curticei and in the series on Haemonchus contortus was 100% in each case. For the same compound, the mortality at 20 ppm with Cooperia curticei and in the series with Haemonchus contortus was 100% in each case. In addition, the concentration for a half-maximal effect (EC50) in series [2] is < 1 µg/mL; on C. elegans Slo-1a it was < 3.16 nM; in series [4] it was < 1 µg/mL.
With `O=C(N[C@H]1CCOc2ccccc21)c1cnc2c(-c3cc(Cl)cc(Cl)c3)cccc2c1N1CC(F)(F)C1` [Example 394], in series [1], the inhibition at 1 µg/mL was > 80%. The mortality at 20 ppm in the series on Cooperia curticei and in the series on Haemonchus contortus was 80% throughout. Further, the EC50 in series [2] was < 0.1 µg/mL; on C. elegans Slo-1a it was 3.16 to 31.6 nM; in series [3], < 0.1 µg/mL; in series [4], < 0.1 µg/mL. In addition, the mortality at 4 ppm in the series on Haemonchus contortus was 80%.
In the case of `O=C(N[C@H]1CCOc2ccccc21)c1cnc2c(-c3cc(Cl)cc(Cl)c3)cccc2c1-c1ccncc1` [Example 396], the inhibition at 1 µg/mL in series [1] is > 80%. The mortality at 4 ppm with Cooperia curticei came out at 100%; in the series with Haemonchus contortus it was 90%. The mortality at 20 ppm with Cooperia curticei and in the series with Haemonchus contortus was 100% in each case. The EC50 in series [2] was < 0.1 µg/mL; at C. elegans Slo-1a, < 3.16 nM; in series [3] it was < 0.1 µg/mL; in series [4], < 0.1 µg/mL.

These data come from patent US10889573B2, “Anthelmintic quinoline-3-carboxamide derivatives” (Bayer Animal Health GMBH, priority 2016, dated 2021).
